Assay results reported in PubChem BioAssay AID1963430 (Molecular Pharmacology Branch, DTP, NCI, 2024).

System: 521955-158-R2-J5-PDC complex spheroid growth, % test/control
Assay: Anticancer human tumor 521955-158-R2-J5-PDC patient-derived pancreatic carcinoma cell line growth inhibition [Asc]
Conditions: for IC50: curve of first compound; for viability, T/C: stronger effect = lower value
How it was run: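 Spheroid model: tumor line + HUVEC + hMSC. Single agents and combinations; top conc. at/near clinical Cmax (10 microM if undetermined), half-log dilutions. DMSO stocks at 800-fold test concentration.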

[1] = second compound 0.1 µM, first compound 0.0316 µM
[2] = second compound 0.1 µM, first compound 0.1 µM
[3] = second compound 0.1 µM, first compound 0.316 µM
[4] = second compound 0.1 µM, first compound 1 µM
[5] = second compound 0.316 µM, first compound 0.0316 µM
[6] = second compound 0.316 µM, first compound 0.1 µM
[7] = second compound 0.316 µM, first compound 0.316 µM
[8] = second compound 0.316 µM, first compound 1 µM
[9] = second compound 1 µM, first compound 0.0316 µM
[10] = second compound 1 µM, first compound 0.1 µM
[11] = second compound 1 µM, first compound 0.316 µM
[12] = second compound 1 µM, first compound 1 µM
[13] = second compound 3.16 µM, first compound 0.0316 µM
[14] = second compound 3.16 µM, first compound 0.1 µM
[15] = second compound 3.16 µM, first compound 0.316 µM
[16] = second compound 3.16 µM, first compound 1 µM
[17] = second compound 10 µM, first compound 0.0316 µM
[18] = second compound 10 µM, first compound 0.1 µM
[19] = second compound 10 µM, first compound 0.316 µM
[20] = second compound 10 µM, first compound 1 µM
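Note: spheroids exposed to agents for 7 days before readout.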
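Throughout, for viability, T/C: 100% = DMSO vehicle control viability.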

Work on `C#Cc1c(F)ccc2cc(O)cc(-c3ncc4c(N5CC6CCC(C5)N6)nc(OCC56CCCN5CC(F)C6)nc4c3F)c12` (stereo not given) + Cc1c(S(C)(=O)=O)c(-c2cc(F)cc(N3CCN(c4ccc(NS(=O)(=O)c5ccc(NC(CCN6CCC(C(=O)OCCCP(=O)(O)O)CC6)CSc6ccccc6)c(S(=O)(=O)C(F)(F)F)c5)cc4)CC3)c2)c(-c2ccc(Cl)cc2)n1C(C)C yielded an IC50 (second compound 0.1 µM) of less than 31.6 nM, an IC50 (second compound 0.316 µM) of less than 31.6 nM and an IC50 (second compound 1 µM) of less than 31.6 nM. For the same compound, the IC50 (second compound 3.16 µM) was less than 31.6 nM, the IC50 (second compound 10 µM) was greater than 10000 nM and the viability, T/C [1] was 44.7%. It also gave a viability, T/C [2] of 30.4%, a viability, T/C [3] of 38.7% and a viability, T/C [4] of 33.9%. It also gave a viability, T/C (second compound 0.1 µM, first compound 3.16 µM) of 38.5%, a viability, T/C (second compound 0.1 µM, first compound 10 µM) of 34% and a viability, T/C [5] of 43.6%. It also gave a viability, T/C [6] of 27.9%, a viability, T/C [7] of 33.3% and a viability, T/C [8] of 32.1%. The viability, T/C (second compound 0.316 µM, first compound 3.16 µM) was 32.5%, the viability, T/C (second compound 0.316 µM, first compound 10 µM) was 34.4% and the viability, T/C [9] was 31.3%. The viability, T/C [10] was 38.4%, the viability, T/C [11] was 39.3% and the viability, T/C [12] was 31.8%. For the same compound, the viability, T/C (second compound 1 µM, first compound 3.16 µM) was 28.8%, the viability, T/C (second compound 1 µM, first compound 10 µM) was 29.4% and the viability, T/C [13] was 42.2%. It also gave a viability, T/C [14] of 41.3%, a viability, T/C [15] of 34.7% and a viability, T/C [16] of 34.8%. The viability, T/C (second compound 3.16 µM, first compound 3.16 µM) was 35.9%, the viability, T/C (second compound 3.16 µM, first compound 10 µM) was 44.7% and the viability, T/C [17] was 174%. For the same compound, the viability, T/C [18] was 152%, the viability, T/C [19] was 155% and the viability, T/C [20] was 152%. It also gave a viability, T/C (second compound 10 µM, first compound 3.16 µM) of 113% and a viability, T/C (second compound 10 µM, first compound 10 µM) of 79.6%.

Compound `CNC(C)C(=O)NC1CN(S(=O)(=O)c2cccc(S(=O)(=O)N3CCC4CCC(C(=O)NC(c5ccccc5)c5ccccc5)N4C(=O)C(NC(=O)C(C)NC)C3)c2)CCC2CCC(C(=O)NC(c3ccccc3)c3ccccc3)N2C1=O` (stereo not given) + Cc1c(S(C)(=O)=O)c(-c2cc(F)cc(N3CCN(c4ccc(NS(=O)(=O)c5ccc(NC(CCN6CCC(C(=O)OCCCP(=O)(O)O)CC6)CSc6ccccc6)c(S(=O)(=O)C(F)(F)F)c5)cc4)CC3)c2)c(-c2ccc(Cl)cc2)n1C(C)C has an IC50 (second compound 0.1 µM) greater than 1000 nM, an IC50 (second compound 0.316 µM) greater than 1000 nM and an IC50 (second compound 1 µM) greater than 1000 nM. The IC50 (second compound 3.16 µM) was greater than 1000 nM, the IC50 (second compound 10 µM) was greater than 1000 nM and the viability, T/C (second compound 0.1 µM, first compound 0.00316 µM) was 75.6%. For the same compound, the viability, T/C (second compound 0.1 µM, first compound 0.01 µM) was 64%, the viability, T/C [1] was 57.1% and the viability, T/C [2] was 76.4%. The viability, T/C [3] was 64%, the viability, T/C [4] was 67.9% and the viability, T/C (second compound 0.316 µM, first compound 0.00316 µM) was 92.7%. It also gave a viability, T/C (second compound 0.316 µM, first compound 0.01 µM) of 86.7%, a viability, T/C [5] of 89.3% and a viability, T/C [6] of 74.6%. The viability, T/C [7] was 91.1%, the viability, T/C [8] was 87.6% and the viability, T/C (second compound 1 µM, first compound 0.00316 µM) was 97.2%. It also gave a viability, T/C (second compound 1 µM, first compound 0.01 µM) of 88.4%, a viability, T/C [9] of 71.8% and a viability, T/C [10] of 77.8%. It also gave a viability, T/C [11] of 59.8%, a viability, T/C [12] of 75.7% and a viability, T/C (second compound 3.16 µM, first compound 0.00316 µM) of 97.7%. For the same compound, the viability, T/C (second compound 3.16 µM, first compound 0.01 µM) was 75.9%, the viability, T/C [13] was 47.5% and the viability, T/C [14] was 80.6%. The viability, T/C [15] was 65.8%, the viability, T/C [16] was 60.4% and the viability, T/C (second compound 10 µM, first compound 0.00316 µM) was 192%. For the same compound, the viability, T/C (second compound 10 µM, first compound 0.01 µM) was 171%, the viability, T/C [17] was 180% and the viability, T/C [18] was 149%. The viability, T/C [19] was 197% and the viability, T/C [20] was 121%.

In the case of `Cc1nc(N2CCC3(CC2)COC(C)C3N)c(CO)nc1Sc1ccnc(N)c1Cl` (stereo not given) + Cc1c(S(C)(=O)=O)c(-c2cc(F)cc(N3CCN(c4ccc(NS(=O)(=O)c5ccc(NC(CCN6CCC(C(=O)OCCCP(=O)(O)O)CC6)CSc6ccccc6)c(S(=O)(=O)C(F)(F)F)c5)cc4)CC3)c2)c(-c2ccc(Cl)cc2)n1C(C)C, the IC50 (second compound 0.1 µM) is reported as 60.8 nM, the IC50 (second compound 0.316 µM) is reported as 57.7 nM and the IC50 (second compound 1 µM) is reported as 142 nM. For the same compound, the IC50 (second compound 3.16 µM) was 392 nM, the IC50 (second compound 10 µM) was greater than 3000 nM and the viability, T/C (second compound 0.1 µM, first compound 0.00949 µM) was 52.9%. It also gave a viability, T/C (second compound 0.1 µM, first compound 0.03 µM) of 55.8%, a viability, T/C (second compound 0.1 µM, first compound 0.0949 µM) of 45.8% and a viability, T/C (second compound 0.1 µM, first compound 0.3 µM) of 43.2%. It also gave a viability, T/C (second compound 0.1 µM, first compound 0.949 µM) of 34.9%, a viability, T/C (second compound 0.1 µM, first compound 3 µM) of 36.9% and a viability, T/C (second compound 0.316 µM, first compound 0.00949 µM) of 63.6%. The viability, T/C (second compound 0.316 µM, first compound 0.03 µM) was 65.8%, the viability, T/C (second compound 0.316 µM, first compound 0.0949 µM) was 38.9% and the viability, T/C (second compound 0.316 µM, first compound 0.3 µM) was 32.9%. The viability, T/C (second compound 0.316 µM, first compound 0.949 µM) was 30.4%, the viability, T/C (second compound 0.316 µM, first compound 3 µM) was 30.5% and the viability, T/C (second compound 1 µM, first compound 0.00949 µM) was 64.6%. It also gave a viability, T/C (second compound 1 µM, first compound 0.03 µM) of 69.4%, a viability, T/C (second compound 1 µM, first compound 0.0949 µM) of 48.2% and a viability, T/C (second compound 1 µM, first compound 0.3 µM) of 39.4%. It also gave a viability, T/C (second compound 1 µM, first compound 0.949 µM) of 44.4%, a viability, T/C (second compound 1 µM, first compound 3 µM) of 29.4% and a viability, T/C (second compound 3.16 µM, first compound 0.00949 µM) of 75.9%. The viability, T/C (second compound 3.16 µM, first compound 0.03 µM) was 64.7%, the viability, T/C (second compound 3.16 µM, first compound 0.0949 µM) was 61.2% and the viability, T/C (second compound 3.16 µM, first compound 0.3 µM) was 50.3%. It also gave a viability, T/C (second compound 3.16 µM, first compound 0.949 µM) of 43%, a viability, T/C (second compound 3.16 µM, first compound 3 µM) of 48.9% and a viability, T/C (second compound 10 µM, first compound 0.00949 µM) of 230%. For the same compound, the viability, T/C (second compound 10 µM, first compound 0.03 µM) was 221%, the viability, T/C (second compound 10 µM, first compound 0.0949 µM) was 179% and the viability, T/C (second compound 10 µM, first compound 0.3 µM) was 190%. It also gave a viability, T/C (second compound 10 µM, first compound 0.949 µM) of 179% and a viability, T/C (second compound 10 µM, first compound 3 µM) of 134%.
